Test results from patent US20180153995A1, “USE OF ANTIMICROBIAL POLYMERS FOR RE-SENSITIZATION OF MICROORGANISMS UPON EMERGENCE OF RESISTANCE TO ANTI-MICROBIAL AGENTS” (Technion Research & Development Foundation Limited, priority 2008, published 2018).
≈ marks a conversion by molar mass, not a printed value. Read-outs that look alike come from different tables or passages of the source. Square brackets hold non-standard residues; d marks the D form. Peptide text beside a SMILES is read from it. 12Ado = NCCCCCCCCCCCC(=O)O

Assays:
MRSA 15903 [1] = experiment: Sub-MIC time-kill curves (CFU counts); assay type: cell-based, Staphylococcus aureus; settings: sub-MIC time-kill, single agent
Protocol: At the specified time points of incubation (37° C. under shaking), cultures were subjected to serial 10-fold dilutions (up to 10^6) by adding 50 μl of sample to 450 μl saline (0.85% NaCl). Cell counts were determined using the drop plate method (three 20-μl drops onto LB-agar plates). Plates were incubated at 37° C. and colonies were counted for the calculation after incubation for 24 hours.

MRSA 15903 [2] = experiment: microbe, parasite or virus in culture; assay type: cell-based, Staphylococcus aureus; settings: for MIC, ¼ + MIC OAK: with C12K(KNC10K)3NH2 (SEQ ID NO: 10) at ¼ of its MIC; for MIC, ½ + MIC OAK: with C12K(KNC10K)3NH2 (SEQ ID NO: 10) at ½ of its MIC; for MIC, ⅓ + MIC OAK: with C12K(KNC10K)3NH2 (SEQ ID NO: 10) at ⅓ of its MIC
Protocol: (§1) The fractionary inhibitory (FIC) concentration index for combinations of two antimicrobial agents was calculated as follows: FIC index=FICA+FICB=A/MICA+B/MICB where A and B are the MIC values of agent A and agent B in the combination, MICA and MICB are the MICs of agent A and agent B alone, and FICA and FICB are the FICs of agent A and agent B.
(§2) The FIC indexes were interpreted as follows: less than 0.5 indicates a clear re-sensitizing effect; from 0.5 to 4 indicates a marginal or null re-sensitizing effect; and over 4 indicates antagonism.
Experimental data for FIG. 4 were obtained as follows.

ATCC 25923 = experiment: microbe, parasite or virus in culture; assay type: cell-based, Staphylococcus aureus; settings: ATCC 25923
Protocol: (§3) MICs were determined by microdilution susceptibility testing in 96-well plates (by Nunc) using inocula of 10^5 bacteria per ml. Cell populations were evaluated by optical density measurements at 620 nm and were calibrated against a set of standards. Hundred (100) μl of a bacterial suspension were added to 100 μl of culture medium (control) or to 100 μl of culture medium containing various polymer concentrations in 2-fold serial dilutions. Inhibition of proliferation was determined by optical density measurements at 620 nm after an incubation period of 24 hours at 37° C.

MRSA 15852 = assay type: cell-based, Staphylococcus aureus; settings: 15852
Protocol: as §1, §2

MRSA 15918 = experiment: microbe, parasite or virus in culture; assay type: cell-based, Staphylococcus aureus; settings: 15918
Protocol: as §3, §1, §2

ATCC 29213 = experiment: microbe, parasite or virus in culture; assay type: cell-based, Staphylococcus aureus; settings: ATCC 29213
Protocol: as §3, §1, §2

E. coli AG100/ks = experiment: Antibiotic MIC with or without sub-MIC polymer (Tables 20, 21); assay type: cell-based, Escherichia coli
E. coli G11a1 = experiment: as above; assay type: cell-based, Escherichia coli
Protocol: as §3

E. coli AG100 = experiment: as above; assay type: cell-based, Escherichia coli
E. coli D21 = experiment: as above; assay type: cell-based, Escherichia coli
[3] = Staphylococcus aureus, MRSA, 24 h, MRSA 15903, antibiotic alone (Table 22), read-out: MIC, Alone

With `NCCCCCCCCCCCC(=O)N[C@@H](CCCCN)C(=O)NCCCCCCCCCCCC(=O)N[C@@H](CCCCN)C(=O)N[C@@H](CCCCN)C(=O)NCCCCCCCCCCCC(=O)N[C@@H](CCCCN)C(N)=O` [NC12(KNC12K)2NH2] (H-[12Ado]K[12Ado]KK[12Ado]K-NH2) the “bactericidal activity, agent alone” value (MRSA 15903 [1]) was “no bactericidal activity”, the MIC (MRSA 15903 [2]; 15903) was 6.2 µM and the “improvement (decrease) in the polymer's MIC in presence of oxacillin” value (MRSA 15903 [2]; MRSA 15903, polymer + sub-MIC oxacillin) was “twofold”. The MIC of polymer (MRSA 15903 [2]; MRSA 15903, polymer alone) was 6.25 µM, the “optimal re-sensitization polymer concentration” value (MRSA 15903 [2]; MRSA 15903, with oxacillin) was 2.1 µM and the MIC (ATCC 25923) was 3.1 µM (≈ 3.48 µg/mL). It also gave an MIC (MRSA 15852) of 3.1 µM, an MIC (MRSA 15918) of 6.2 µM and an MIC (ATCC 29213) of 3.1 µM.
`CC1(C)S[C@@H]2[C@H](NC(=O)[C@H](N)c3ccccc3)C(=O)N2[C@H]1C(=O)O` [ampicillin] was tested, and the “Antibiotic MIC, None” value (E. coli AG100/ks; antibiotic alone (Table 20)) was over 512 µg/mL, the “Antibiotic MIC, None” value (E. coli AG100/ks; antibiotic alone (Table 21)) was over 512 µg/mL and the “Antibiotic MIC in presence of C12K(NC8K)5NH2 (SEQ ID NO: 3), +¼ MIC” value (“Antibiotic MIC … (SEQ ID NO: 3), +¼ MIC” below) (E. coli AG100/ks; polymer at ¼ of its MIC) was over 512 µg/mL. The “Antibiotic MIC in presence of C12K(NC8K)7NH2 (SEQ ID NO: 4), +¼ MIC” value (shortened to “Antibiotic MIC … (SEQ ID NO: 4), +¼ MIC”) (E. coli AG100/ks; polymer at ¼ of its MIC) was over 512 µg/mL, the “Antibiotic MIC in presence of C12K(NC8K)5NH2 (SEQ ID NO: 3), +½ MIC” value (“Antibiotic MIC … (SEQ ID NO: 3), +½ MIC” for short) (E. coli AG100/ks; polymer at ½ of its MIC) was over 512 µg/mL and the “Antibiotic MIC in presence of C12K(NC8K)7NH2 (SEQ ID NO: 4), +½ MIC” value (“Antibiotic MIC … (SEQ ID NO: 4), +½ MIC” below) (E. coli AG100/ks; polymer at ½ of its MIC) was over 512 µg/mL. For the same compound, the “Antibiotic MIC in presence of C12K(NC8K)5NH2 (SEQ ID NO: 3), +⅓ MIC” value (shortened to “Antibiotic MIC … (SEQ ID NO: 3), +⅓ MIC”) (E. coli AG100/ks; polymer at ⅓ of its MIC) was over 512 µg/mL, the “Antibiotic MIC in presence of C12K(NC8K)7NH2 (SEQ ID NO: 4), +⅓ MIC” value (“Antibiotic MIC … (SEQ ID NO: 4), +⅓ MIC” for short) (E. coli AG100/ks; polymer at ⅓ of its MIC) was over 512 µg/mL and the “Antibiotic MIC, None” value (E. coli G11a1; antibiotic alone (Table 20)) was 64 µg/mL. For the same compound, the “Antibiotic MIC, None” value (E. coli G11a1; antibiotic alone (Table 21)) was 64 µg/mL, the “Antibiotic MIC … (SEQ ID NO: 3), +¼ MIC” value (E. coli G11a1; polymer at ¼ of its MIC) was 64 µg/mL and the “Antibiotic MIC … (SEQ ID NO: 4), +¼ MIC” value (E. coli G11a1; polymer at ¼ of its MIC) was 64 µg/mL. The “Antibiotic MIC … (SEQ ID NO: 3), +½ MIC” value (E. coli G11a1; polymer at ½ of its MIC) was 32 µg/mL, the “Antibiotic MIC … (SEQ ID NO: 4), +½ MIC” value (E. coli G11a1; polymer at ½ of its MIC) was 32 µg/mL and the “Antibiotic MIC … (SEQ ID NO: 3), +⅓ MIC” value (E. coli G11a1; polymer at ⅓ of its MIC) was 64 µg/mL. The “Antibiotic MIC … (SEQ ID NO: 4), +⅓ MIC” value (E. coli G11a1; polymer at ⅓ of its MIC) was 64 µg/mL, the “Antibiotic MIC, None” value (E. coli AG100; antibiotic alone (Table 20)) was 4 µg/mL and the “Antibiotic MIC, None” value (E. coli AG100; antibiotic alone (Table 21)) was 4 µg/mL. For the same compound, the “Antibiotic MIC, None” value (E. coli D21; antibiotic alone (Table 20)) was 64 µg/mL, the “Antibiotic MIC, None” value (E. coli D21; antibiotic alone (Table 21)) was 64 µg/mL and the “Antibiotic MIC … (SEQ ID NO: 3), +¼ MIC” value (E. coli D21; polymer at ¼ of its MIC) was 64 µg/mL. For the same compound, the “Antibiotic MIC … (SEQ ID NO: 4), +¼ MIC” value (E. coli D21; polymer at ¼ of its MIC) was 64 µg/mL, the “Antibiotic MIC … (SEQ ID NO: 3), +½ MIC” value (E. coli D21; polymer at ½ of its MIC) was 32 µg/mL and the “Antibiotic MIC … (SEQ ID NO: 4), +½ MIC” value (E. coli D21; polymer at ½ of its MIC) was 32 µg/mL. For the same compound, the “Antibiotic MIC … (SEQ ID NO: 3), +⅓ MIC” value (E. coli D21; polymer at ⅓ of its MIC) was 64 µg/mL and the “Antibiotic MIC … (SEQ ID NO: 4), +⅓ MIC” value (E. coli D21; polymer at ⅓ of its MIC) was 64 µg/mL.
`Cc1nnc(SCC2=C(C(=O)O)N3C(=O)[C@@H](NC(=O)Cn4cnnn4)[C@H]3SC2)s1` [cefazolin] was tested, and the “MIC, ¼ + MIC OAK” value (MRSA 15903 [2]; MRSA 15903) was 16 µg/mL, the “MIC, ½ + MIC OAK” value (MRSA 15903 [2]; MRSA 15903) was 2 to 4 µg/mL and the “MIC, ⅓ + MIC OAK” value (MRSA 15903 [2]; MRSA 15903) was 8 to 16 µg/mL. The MIC (MRSA 15903 [2]; [3]) was 16 µg/mL.
With `CCN1CCN(C(=O)N[C@@H](C(=O)N[C@@H]2C(=O)N3C(C(=O)O)=C(CSc4nnnn4C)CS[C@H]23)c2ccc(O)cc2)C(=O)C1=O` [cefoperazone] the “MIC, ¼ + MIC OAK” value (MRSA 15903 [2]; MRSA 15903) was 16 µg/mL, the “MIC, ½ + MIC OAK” value (MRSA 15903 [2]; MRSA 15903) was 4 µg/mL and the “MIC, ⅓ + MIC OAK” value (MRSA 15903 [2]; MRSA 15903) was 8 to 16 µg/mL. For the same compound, the MIC (MRSA 15903 [2]; [3]) was 16 µg/mL.
`CO/N=C(\C(=O)N[C@@H]1C(=O)N2C(C(=O)O)=C(COC(C)=O)CS[C@H]12)c1csc(N)n1` [cefotaxime] was tested, and the “MIC, ¼ + MIC OAK” value (MRSA 15903 [2]; MRSA 15903) was 32 µg/mL, the “MIC, ½ + MIC OAK” value (MRSA 15903 [2]; MRSA 15903) was 4 µg/mL and the “MIC, ⅓ + MIC OAK” value (MRSA 15903 [2]; MRSA 15903) was 16 µg/mL. The MIC (MRSA 15903 [2]; [3]) was 32 µg/mL.
With `CN[C@H](CC(C)C)C(=O)N[C@H]1C(=O)N[C@@H](CC(N)=O)C(=O)N[C@H]2C(=O)N[C@H]3C(=O)N[C@H](C(=O)N[C@H](C(=O)O)c4cc(O)cc(O)c4-c4cc3ccc4O)[C@H](O)c3ccc(c(Cl)c3)Oc3cc2cc(c3O[C@@H]2O[C@H](CO)[C@@H](O)[C@H](O)[C@H]2O[C@H]2C[C@](C)(N)[C@H](O)[C@H](C)O2)Oc2ccc(cc2Cl)[C@H]1O` [vancomycin] the “MIC, ¼ + MIC OAK” value (MRSA 15903 [2]; MRSA 15903) was 1 µg/mL, the “MIC, ½ + MIC OAK” value (MRSA 15903 [2]; MRSA 15903) was 1 µg/mL and the “MIC, ⅓ + MIC OAK” value (MRSA 15903 [2]; MRSA 15903) was 1 µg/mL. For the same compound, the MIC (MRSA 15903 [2]; Staphylococcus aureus, MRSA, 24 h, read-out: MIC, Alone) was 1 µg/mL.
